Data taken from ChEMBL document CHEMBL4823252 (J Med Chem, 2021).
Activity calls are given as the source filed them. The rule behind the calls is not given here.

Tests used:
[1] = molecular target: T1, Receptor-type tyrosine-protein kinase FLT3 (Homo sapiens, UniProt P36888); assay: Inhibition of FLT3 (unknown origin) incubated for 30 mins in presence of ATP by mobility shift assay
T1 sequence (P36888 whole entry): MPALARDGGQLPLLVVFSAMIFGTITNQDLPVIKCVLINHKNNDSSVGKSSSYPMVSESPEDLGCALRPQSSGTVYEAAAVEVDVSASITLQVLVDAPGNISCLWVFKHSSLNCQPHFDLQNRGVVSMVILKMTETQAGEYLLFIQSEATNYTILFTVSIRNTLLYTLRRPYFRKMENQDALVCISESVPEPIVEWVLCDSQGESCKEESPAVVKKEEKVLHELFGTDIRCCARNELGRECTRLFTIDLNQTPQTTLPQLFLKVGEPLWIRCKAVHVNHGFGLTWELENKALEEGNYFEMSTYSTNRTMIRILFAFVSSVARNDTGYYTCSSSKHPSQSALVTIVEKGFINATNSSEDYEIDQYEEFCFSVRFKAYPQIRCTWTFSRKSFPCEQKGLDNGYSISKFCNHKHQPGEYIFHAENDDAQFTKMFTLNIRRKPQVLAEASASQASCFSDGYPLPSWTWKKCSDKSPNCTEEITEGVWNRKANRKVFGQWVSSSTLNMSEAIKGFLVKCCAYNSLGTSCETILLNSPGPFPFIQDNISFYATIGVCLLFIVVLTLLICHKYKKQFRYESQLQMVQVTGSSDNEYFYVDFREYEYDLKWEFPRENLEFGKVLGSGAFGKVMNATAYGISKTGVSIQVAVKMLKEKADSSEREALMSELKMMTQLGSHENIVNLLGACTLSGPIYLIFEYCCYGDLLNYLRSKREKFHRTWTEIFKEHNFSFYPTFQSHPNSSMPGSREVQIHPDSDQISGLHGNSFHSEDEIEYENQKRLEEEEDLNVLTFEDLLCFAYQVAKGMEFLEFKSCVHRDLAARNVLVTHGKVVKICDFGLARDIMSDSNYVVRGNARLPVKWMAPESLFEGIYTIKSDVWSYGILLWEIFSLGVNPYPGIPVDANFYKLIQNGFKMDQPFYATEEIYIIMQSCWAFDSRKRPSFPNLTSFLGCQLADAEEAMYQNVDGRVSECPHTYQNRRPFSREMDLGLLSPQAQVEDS

[2] = molecular target: Receptor-type tyrosine-protein kinase FLT3 (Homo sapiens, UniProt P36888, ITD); assay: Inhibition of FLT3 ITD mutant (unknown origin) incubated for 30 mins in presence of ATP by mobility shift assay
[3] = molecular target: Receptor-type tyrosine-protein kinase FLT3 (Homo sapiens, UniProt P36888, D835Y); assay: Inhibition of FLT3 D835Y mutant (unknown origin) incubated for 30 mins in presence of ATP by mobility shift assay
[4] = molecular target: Vascular endothelial growth factor receptor 1 (Homo sapiens, UniProt P17948); assay: Inhibition of VEGFR1 (unknown origin) incubated for 30 mins in presence of ATP by mobility shift assay
[5] = molecular target: Vascular endothelial growth factor receptor 2 (Homo sapiens, UniProt P35968); assay: Inhibition of VEGFR2 (unknown origin) incubated for 30 mins in presence of ATP by mobility shift assay
[6] = molecular target: Receptor-type tyrosine-protein kinase FLT3 (Homo sapiens) (UniProt P36888); assay: Binding affinity to FLT3 (unknown origin) at 1000 nM relative to control
[7] = system: Receptor-type tyrosine-protein kinase FLT3 (Homo sapiens), P36888 [UNDEFINED MUTATION]; assay: Binding affinity to FLT3 ITD mutant (unknown origin) at 1000 nM relative to control
[8] = system: Receptor-type tyrosine-protein kinase FLT3 (Homo sapiens), P36888 [R834Q]; assay: Binding affinity to FLT3 R834Q mutant (unknown origin) at 1000 nM relative to control
[9] = system: U-937; assay: Antiproliferative activity against human U-937 cells measured after 72 hrs by CCK8 assay; type: functional, cell-based; conditions: U-937, 72 h
[10] = system: MOLM-13; assay: Antiproliferative activity against human sunitinib-resistant MOLM-13 cells at 12 nM incubated for 72 hrs by CCK8 assay relative to control; type: functional
[11] = system: MV4-11; assay: Induction of cell cycle arrest in human MV4-11 cells assessed as accumulation at sub-G1 phase at 100 nM incubated for 24 hrs by flow cytometry (reference value: […]%); type: functional
[12] = system: MV4-11; assay: Induction of apoptosis in human MV4-11 cells assessed as late apoptotic cells at 100 nM incubated for 24 hrs by flow cytometry (reference value: 0.58%); type: functional
[13] = molecular target: Receptor-type tyrosine-protein kinase FLT3 (Homo sapiens) (UniProt P36888); assay: Inhibition of FLT3 in human MV4-11 cells assessed as reduction in ERK phosphorylation at 10 uM incubated for 2 hrs by Western blot analysis; type: cell-based
[14] = AUC (0 to infinity) in Sprague-Dawley rat at 1 mg/kg, iv; type: ADME, organism-based; design: route intravenous, time infinity, dose 1 mg/kg; conditions: in vivo
[15] = MRT (0 to last) in Sprague-Dawley rat at 1 mg/kg, iv; type: ADME, organism-based; conditions: in vivo
[16] = AUC (0 to last) in Sprague-Dawley rat at 10 mg/kg, po; type: ADME, organism-based; design: route oral, time 0 - last, dose 10 mg/kg; conditions: in vivo
[17] = Tmax in Sprague-Dawley rat at 10 mg/kg, po; type: ADME, organism-based; conditions: in vivo
[18] = Oral bioavailability in Sprague-Dawley rat at 10 mg/kg; type: ADME, organism-based; conditions: in vivo
[19] = system: MOLM-13; assay: Antitumor activity against human MOLM-13 cells xenografted in po dosed mouse assessed as tumor growth inhibition administered for 20 days measured once every 2 days; type: functional, organism-based; conditions: time 20.0 day
[20] = system: MV4-11; assay: Antitumor activity against human MV4-11 cells xenografted in mouse assessed as tumor growth inhibition at 2.5 mg/kg, po administered for 20 days measured once every 2 days relative to control; type: functional; conditions: MV4-11, po, 480 h, time 20 day, read-out: TGI
[21] = Toxicity in mouse xenografted with human MV4-11 cells assessed as effect on heart at 2.5 to 10 mg/kg, po administered for 16 days by hematoxylin and eosin staining based assay; type: organism-based; conditions: in vivo, 384 h, dose 2.5-10 mg/kg, time 16 day
[22] = Toxicity in mouse xenografted with human MV4-11 cells assessed as effect on liver at 2.5 to 10 mg/kg, po administered for 16 days by hematoxylin and eosin staining assay; type: organism-based; conditions: in vivo, 384 h, dose 2.5-10 mg/kg, time 16 day
[23] = Toxicity in mouse xenografted with human MV4-11 cells assessed as effect on kidney at 2.5 to 10 mg/kg, po administered for 16 days by hematoxylin and eosin staining assay; type: organism-based; conditions: in vivo, 384 h, dose 2.5-10 mg/kg, time 16 day
[24] = Toxicity in mouse xenografted with human MOLM-13 cells assessed as effect on kidney at 10 to 40 mg/kg, po administered for 20 days by hematoxylin and eosin staining assay; type: organism-based; conditions: in vivo, 480 h, dose 10-40 mg/kg, time 20 day
[25] = Toxicity in mouse xenografted with human MOLM-13 cells assessed as effect on liver at 10 to 40 mg/kg, po administered for 20 days by hematoxylin and eosin staining assay; type: organism-based; conditions: in vivo, 480 h, dose 10-40 mg/kg, time 20 day
[26] = Toxicity in mouse xenografted with human MOLM-13 cells assessed as induction of cytoplasmic condensation at 40 mg/kg, po administered for 20 days by hematoxylin and eosin staining assay; type: organism-based; conditions: in vivo, 480 h, time 20 day

Vascular endothelial growth factor receptor 1, sequence (P17948 whole entry): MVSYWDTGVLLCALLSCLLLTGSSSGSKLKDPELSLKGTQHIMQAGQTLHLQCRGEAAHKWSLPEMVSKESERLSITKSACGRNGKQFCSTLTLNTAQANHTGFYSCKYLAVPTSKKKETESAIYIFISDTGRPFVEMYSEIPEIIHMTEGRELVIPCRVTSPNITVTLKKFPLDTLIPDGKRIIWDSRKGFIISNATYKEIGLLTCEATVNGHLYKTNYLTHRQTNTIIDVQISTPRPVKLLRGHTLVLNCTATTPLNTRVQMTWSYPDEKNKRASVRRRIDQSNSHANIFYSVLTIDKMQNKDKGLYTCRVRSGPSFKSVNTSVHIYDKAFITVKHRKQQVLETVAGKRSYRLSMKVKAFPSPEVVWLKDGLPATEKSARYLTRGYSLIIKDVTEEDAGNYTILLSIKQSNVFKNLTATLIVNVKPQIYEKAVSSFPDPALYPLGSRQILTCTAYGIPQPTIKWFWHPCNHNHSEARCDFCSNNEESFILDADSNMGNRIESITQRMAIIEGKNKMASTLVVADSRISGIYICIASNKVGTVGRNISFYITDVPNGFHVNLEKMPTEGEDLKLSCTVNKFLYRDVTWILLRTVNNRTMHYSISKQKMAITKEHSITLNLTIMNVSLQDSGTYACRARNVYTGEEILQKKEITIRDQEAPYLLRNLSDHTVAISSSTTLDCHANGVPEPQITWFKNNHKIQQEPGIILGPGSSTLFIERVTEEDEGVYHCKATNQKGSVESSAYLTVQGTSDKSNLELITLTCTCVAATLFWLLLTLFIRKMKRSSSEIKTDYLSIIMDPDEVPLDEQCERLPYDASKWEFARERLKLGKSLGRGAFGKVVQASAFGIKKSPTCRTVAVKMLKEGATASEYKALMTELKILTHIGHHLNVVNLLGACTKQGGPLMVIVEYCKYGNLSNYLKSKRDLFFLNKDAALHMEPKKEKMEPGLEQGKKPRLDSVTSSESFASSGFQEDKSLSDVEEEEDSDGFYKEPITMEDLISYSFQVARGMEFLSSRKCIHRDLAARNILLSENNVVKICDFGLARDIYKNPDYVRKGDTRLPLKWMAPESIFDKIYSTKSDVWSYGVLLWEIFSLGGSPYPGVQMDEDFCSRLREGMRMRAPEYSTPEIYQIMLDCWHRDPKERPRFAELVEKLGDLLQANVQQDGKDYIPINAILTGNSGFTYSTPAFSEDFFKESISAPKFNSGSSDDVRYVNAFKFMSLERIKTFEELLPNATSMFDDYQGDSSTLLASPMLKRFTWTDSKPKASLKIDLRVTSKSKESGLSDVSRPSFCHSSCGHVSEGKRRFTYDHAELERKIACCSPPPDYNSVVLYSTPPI
Vascular endothelial growth factor receptor 2, sequence (P35968 whole entry): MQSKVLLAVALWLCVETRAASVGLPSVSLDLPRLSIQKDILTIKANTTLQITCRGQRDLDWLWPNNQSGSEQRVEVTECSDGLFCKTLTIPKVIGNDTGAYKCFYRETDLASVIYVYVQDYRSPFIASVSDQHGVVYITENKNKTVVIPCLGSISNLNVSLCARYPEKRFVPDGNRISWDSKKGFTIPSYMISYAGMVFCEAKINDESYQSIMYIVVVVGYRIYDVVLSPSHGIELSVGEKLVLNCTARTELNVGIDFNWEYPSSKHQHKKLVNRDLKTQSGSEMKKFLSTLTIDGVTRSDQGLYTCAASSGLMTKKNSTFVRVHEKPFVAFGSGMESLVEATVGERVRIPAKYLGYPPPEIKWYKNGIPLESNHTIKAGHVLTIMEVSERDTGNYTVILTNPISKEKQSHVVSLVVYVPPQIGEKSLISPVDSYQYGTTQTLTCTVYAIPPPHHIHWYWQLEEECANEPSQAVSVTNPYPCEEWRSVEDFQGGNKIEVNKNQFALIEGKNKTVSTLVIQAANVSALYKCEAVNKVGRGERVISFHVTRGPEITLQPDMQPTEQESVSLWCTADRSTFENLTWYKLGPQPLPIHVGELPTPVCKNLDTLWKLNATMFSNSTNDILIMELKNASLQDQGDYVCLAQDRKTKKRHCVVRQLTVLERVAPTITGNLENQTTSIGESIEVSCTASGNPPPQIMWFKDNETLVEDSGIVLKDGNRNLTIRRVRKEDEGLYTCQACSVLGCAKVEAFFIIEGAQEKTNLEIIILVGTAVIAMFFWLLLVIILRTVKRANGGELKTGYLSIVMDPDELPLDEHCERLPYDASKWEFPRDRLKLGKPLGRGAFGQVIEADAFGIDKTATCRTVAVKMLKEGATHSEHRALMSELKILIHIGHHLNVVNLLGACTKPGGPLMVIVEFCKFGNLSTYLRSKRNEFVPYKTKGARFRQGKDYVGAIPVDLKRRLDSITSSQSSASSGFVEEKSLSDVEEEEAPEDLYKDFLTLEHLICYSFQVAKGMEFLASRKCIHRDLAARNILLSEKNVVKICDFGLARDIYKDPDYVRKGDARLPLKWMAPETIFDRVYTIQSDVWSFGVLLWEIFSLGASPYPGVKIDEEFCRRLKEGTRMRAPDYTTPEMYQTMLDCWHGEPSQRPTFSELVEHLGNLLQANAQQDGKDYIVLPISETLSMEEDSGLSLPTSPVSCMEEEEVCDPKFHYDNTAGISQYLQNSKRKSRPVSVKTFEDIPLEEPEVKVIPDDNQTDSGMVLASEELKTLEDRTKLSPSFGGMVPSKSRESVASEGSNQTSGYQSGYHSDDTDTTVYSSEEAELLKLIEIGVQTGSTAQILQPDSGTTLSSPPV

Structure (SMILES): Cc1c(NC(=O)CCN2CCCC2)c[nH]c1/C=C1\C(=O)Nc2ccc(F)cc21
- IC50 [1]: 1.8 nM
- IC50 [2]: 0.8 nM
- IC50 [3]: 1.9 nM
- IC50 [4]: 120 nM
- IC50 [5]: 137 nM
- Activity [6]: Active
- Activity [7]: Active
- Activity [8]: Active
- IC50 [9]: 5260 nM
- Activity [10]: -2.6%
- Activity [11]: 30.54%
- Activity [12]: 8.73%
- Activity [13]: Active
- AUC(0-inf) [14]: 2970 ng·h/mL
- MRT last [15]: 4 h
- AUC(0-t) [16]: 21200 ng·h/mL
- Tmax [17]: 2.7 h
- bioavailability [18]: 73.6%
- Activity [19]: Dose-Dependent Effect
- inhibition in vivo at 2.5 mg/kg [20]: 55.7%
- Activity [21]: Non-Toxic
- Activity [22]: Non-Toxic
- Activity [23]: Non-Toxic
- Activity [24]: Non-Toxic
- Activity [25]: Non-Toxic

Structure (SMILES): CCN(CC)CCNC(=O)c1c(C)[nH]c(/C=C2\C(=O)Nc3ccc(F)cc32)c1C [SUNITINIB]
- Activity [26]: Toxic
